Tests used:
Format in all cases: cell-based, human
TK1 [1] = experiment: Androgen induction of TK1 protein expression in LNCaP cells (immunoblot); conditions: LNCaP cells in hormone depleted medium, 10 nM R1881, immunoblot
Description: FIG. 3. […] Androgen responsive LNCaP cells cultured in hormone depleted medium were treated with 10 nM of the synthetic androgen, R1881, for the indicated times, and TK1 expression was assayed by immunoblot analysis. […] Small hairpins targeting AR were introduced into LNCaP cells infected with TK1, or control uninfected LNCaP cells. Cell proliferation was monitored. Relative proliferation is normalized to the shGFP control.
(§1) Immunoblots were performed as previously described {Boehm, 2005 #51}. The following antibodies were used: TK1 (Abcam, ab57757), AR (Santa Cruz, sc-7305), Flag (Sigma, M2), PDK1 (Becton Dickinson, 611070), p-PDK1 (Becton Dickinson, 558395), AKT (Cell Signaling, 9272), p-AKT1-Thr308 (Cell Signaling, 4056), p-AKT1-Ser473 (Cell Signaling, 9271), p-AKT1-Thr450 (Cell Signaling, 9267), p-AKT1-Tyr326 (Cell Signaling, 2968), Actin (Santa Cruz, sc-47778).
TK1 has been reported to be induced by androgens in the rat prostate. […] To elucidate whether TK1 is sufficient to replace AR signaling in promoting cell proliferation and survival, we silenced AR expression in LNCaP cells by RNAi in the presence or absence of ectopic TK1 expression, and monitored cell death.

[2] = test system: prostate cancer cell lines; experiment: Effect of TK1 shRNA on proliferation of prostate cancer cell lines (all cultures); conditions: for cells remaining 12 days post infection: all cultures
Excerpt: FIG. 2. TK1 overexpression synergizes with AKT1 to promote hormone independent prostate cancer. a) Androgen independent tumor formation. LHSR-AR cells were infected with the indicated constructs and injected subcutaneously into castrated mice, except where indicated. M-myristoylated; F-Flag tagged. b) AKT1 and TK1 promote nuclear translocation of AR independent of androgen. H&E and immunhistochemical staining for AR in subcutaneous tumor sections derived from LHSR-AR cells infected with the indicated constructs. Staining of androgen dependent GFP tumor is shown as control. Minimum of 3 tumors were stained per sample and representative images are shown. c) TK1 chromosomal amplification in hormone sensitive and refractory tumors. DNA from 16 hormone sensitive (HS) and 23 hormone refractory (HR) human prostate tumors (from FIG. 1b) were hybridized onto SNP arrays and analyzed for TK1 copy number gain (CNG). The number and percentage of tumors with and without amplification are indicated. d) TK1 protein expression in hormone sensitive and refractory tumors. Prostate tumor microarrays containing 73 hormone sensitive (HS) and 11 hormone resistant (HS) tumor cores were analyzed for TK1 protein expression by immunohistochemistry. The number and percentage of tumors negative and positive for TK1 expression are indicated. d) Immunoblot analysis for TK1 expression in the indicated prostate cancer cell lines. Actin was used to control for loading. e) Effect of TK1 suppression on the proliferation of prostate cancer cells. […] Relative cell number is normalized to the shGFP control.
Stable suppression of TK1 and AR were accomplished by using the pLKO.1-puro lentiviral shRNA constructs previously described {Moffat, 2006 #52}. The sequences targeted by the hairpins are as follows: shTK1-3, […] (SEQ ID NO: 1); shTK1-4, […] (SEQ ID NO: 2); shTK1-5, […] (SEQ ID NO: 3); shAR-1, […] […] Viable cells were counted using a Coulter Counter.
(§2) Next, we determined whether suppressing the expression of TK1 in prostate cancer cell lines that overexpress TK1 reverses their ability to proliferate or survive. […]

TK1 [3] = experiment: Suppression of TK1 expression by shRNA in prostate cancer cell lines; conditions: lentiviral shRNA
Description: as §1
Stable suppression of TK1 and AR were accomplished by using the pLKO.1-puro lentiviral shRNA constructs previously described {Moffat, 2006 #52}. The sequences targeted by the hairpins are as follows: shTK1-3, […] (SEQ ID NO: 1); shTK1-4, […] (SEQ ID NO: 2); shTK1-5, […] (SEQ ID NO: 3); shAR-1, […] (SEQ ID NO: 4); shAR-4, […] (SEQ ID NO: 5); shAR-5, […] (SEQ ID NO: 6); shGFP, Experiments were performed in duplicate, in both the presence and absence of 1.5 ug/ml puromycin to monitor infection efficiency. Viable cells were counted using a Coulter Counter.
as §2

CL-1 cells = experiment: Effect of TK1 suppression by shRNA on cell number of prostate cancer cells (viable cells counted with Coulter Counter); conditions: relative to shGFP control
Excerpt: (§3) FIG. 2. TK1 overexpression synergizes with AKT1 to promote hormone independent prostate cancer. a) Androgen independent tumor formation. LHSR-AR cells were infected with the indicated constructs and injected subcutaneously into castrated mice, except where indicated. M-myristoylated; F-Flag tagged. b) AKT1 and TK1 promote nuclear translocation of AR independent of androgen. H&E and immunhistochemical staining for AR in subcutaneous tumor sections derived from LHSR-AR cells infected with the indicated constructs. Staining of androgen dependent GFP tumor is shown as control. Minimum of 3 tumors were stained per sample and representative images are shown. c) TK1 chromosomal amplification in hormone sensitive and refractory tumors. DNA from 16 hormone sensitive (HS) and 23 hormone refractory (HR) human prostate tumors (from FIG. 1b) were hybridized onto SNP arrays and analyzed for TK1 copy number gain (CNG). The number and percentage of tumors with and without amplification are indicated. d) TK1 protein expression in hormone sensitive and refractory tumors. Prostate tumor microarrays containing 73 hormone sensitive (HS) and 11 hormone resistant (HS) tumor cores were analyzed for TK1 protein expression by immunohistochemistry. The number and percentage of tumors negative and positive for TK1 expression are indicated. d) Immunoblot analysis for TK1 expression in the indicated prostate cancer cell lines. Actin was used to control for loading. e) Effect of TK1 suppression on the proliferation of prostate cancer cells. Cells were infected with three different hairpins targeting TK1 and a control hairpin targeting GFP, and cell numbers determined 5 days post infection. Relative cell number is normalized to the shGFP control.
(§4) LHSR-AR {Berger, 2004 #15}, LNCaP {Horoszewicz, 1980 #23}, C4-2 {Wu, 1994 #18}, CL-1 {Patel, 2000 #16}, LNCaP-abl {Culig, 1999 #49} and LAPC4 {Klein, 1997 #34} cells have previously been described. LHSR-AR cells were cultured in PrEGM with growth supplements (Lonza). LNCaP were cultured in RPMI supplemented with 10% fetal bovine serum, 1 mM sodium pyruvate and 10 mM Hepes. C4-2, CL-1 and LNCaP-abl were cultured in phenol red free RMPI supplemented with 10% charcoal stripped fetal bovine serum, 1 mM sodium pyruvate and 10 mM Hepes. LAPC4 cells were cultured in IMDM supplemented with 10% fetal bovine serum and 1 nM R1881.
(§5) Stable suppression of TK1 and AR were accomplished by using the pLKO.1-puro lentiviral shRNA constructs previously described {Moffat, 2006 #52}. The sequences targeted by the hairpins are as follows: shTK1-3, […] […] Viable cells were counted using a Coulter Counter.
as §2

C4-2 cells = experiment: as above; conditions: C4-2 cultures, relative to shGFP control
Excerpt: as §3, §4, §5, §2

| Molecule | TK1 protein expression (TK1 [1]) | proliferation ([2]; prostate cancer cell lines, 5 days post infection) | suppression of TK1 expression (TK1 [3]) | cells remaining 12 days post infection [2] | cell number 5 days post infection (CL-1 cells) | cell number 5 days post infection (C4-2 cells) |
| --- | --- | --- | --- | --- | --- | --- |
| C[C@]1(O)CC[C@H]2[C@@H]3CCC4=CC(=O)CCC4=C3C=C[C@@]21C [R1881] | androgen induced | – | – | – | – | – |
| shTK1-3: pLKO.1-puro lentiviral shRNA targeting TK1 sequence AGACCGTAATTGTGGCTGCAC (SEQ ID NO: 1) (target site or template, no part of the molecule) | – | did not affect proliferation | did not efficiently suppress TK1 expression | – | – | – |
| shTK1-4: pLKO.1-puro lentiviral shRNA targeting TK1 sequence GGGAAGCCGCCTATACCAAGA (SEQ ID NO: 2) (target site or template, no part of the molecule) | – | – | – | few cells remaining | did not significantly affect | reduced cell number |
| shTK1-5: pLKO.1-puro lentiviral shRNA targeting TK1 sequence TGTCGGCTCTGCTACTTCAAG (SEQ ID NO: 3) (target site or template, no part of the molecule) | – | – | – | few cells remaining | did not significantly affect | reduced cell number |
